Assay results reported in US7160917B2, “Spirobenzofuran lactams and their derivatives, processes for their preparation and use thereof” (Sanofi-Aventis Deutschland GmbH, priority 2002, dated 2007).

What follows are molecules tested against plasminogen activator inhibitor 1 (PAI-1) (Homo sapiens, UniProt P05121) (assay: Bioassay for PAI-1 inhibitors (tPA amidolysis of chromogenic substrate in presence of PAI-1)). Settings: inhibition of PAI-1 measured via tPA activity; 4.5 nM PAI-1, 7.5 nM tPA, 1 mM substrate H-D-Ile-Pro-Arg-pNA, TRIS buffer pH 8.4, OD 405 nm, 37° C. 60 minutes.
Sequence of plasminogen activator inhibitor 1 (PAI-1) (P05121 24-402): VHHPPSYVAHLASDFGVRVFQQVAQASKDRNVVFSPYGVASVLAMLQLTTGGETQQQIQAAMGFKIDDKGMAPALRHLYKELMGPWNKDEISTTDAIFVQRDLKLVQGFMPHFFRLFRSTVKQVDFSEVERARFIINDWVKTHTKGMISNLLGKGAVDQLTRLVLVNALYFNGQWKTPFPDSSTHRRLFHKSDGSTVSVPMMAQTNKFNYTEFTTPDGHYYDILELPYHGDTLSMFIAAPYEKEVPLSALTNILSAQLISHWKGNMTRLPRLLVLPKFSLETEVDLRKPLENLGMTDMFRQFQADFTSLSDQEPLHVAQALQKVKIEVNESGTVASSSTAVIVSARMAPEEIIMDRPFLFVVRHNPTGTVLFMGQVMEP
Type: biochemical
Method: For the detection of the inhibitors of PAI-1, a test is run in which the activation of a specific substrate by tPA is measured in the presence of a defined amount of PAI-1 and the substance in each case to be investigated. tPA is inhibited by PAI-1. An inhibition of PAI-1 results in an increased tPA activity. The enzymatic activity of tPA is measured colorimetrically by employing a chromogenic substrate which becomes colored after amidolysis.
Reaction: The inhibition of the enzymatic activity of tPA by PAI-1 is measured by means of the amidolysis of the chromogenic substrate H-D-IIe-Pro-Arg-pNA (Chromogenix; pNA=para-nitroaniline) as the optical density (OD) at a wavelength of 405 nm.
Extracts or pure substances, for example of the spirobenzofuran lactam derivatives prepared or characterized in examples 4–10, which are present dissolved in DMSO, were diluted in a suitable manner using TRIS buffer pH 8.4.
5 μl of test substance and 5 μl of PAI-1 are preincubated at room temperature for 30 minutes. 10 μl of tPA solution and 20 μl of substrate solution are then added.
The final concentrations in the sample are 50 μM test substance, 4.5 nM PAI-1, 7.5 nM tPA and 1 mM substrate in TRIS buffer pH 8.4. Immediately after the addition of the substrate, the initial absorption is measured at 405 nm. After incubation at 37° C. for 60 minutes, the absorption is measured again.
In each case, blank samples (buffer instead of tPA), positive controls=B (buffer instead of test substances) and tPA controls=A (buffer instead of PAI-1) are co-tested.
After correction by means of the blank samples, the inhibition is determined according to the following equation: […]
The results of the assay are shown as IC50 values in Table 1.
`CC1CCC2C(C)(C)C(O)CCC2(C)C12Cc1c(O)cc3c(c1O2)CN(C(Cc1ccccc1)C(=O)O)C3=O` (stereo not drawn) [Compound of the formula (II)] showed an IC50 of 41 µM. `CCC(C)C(C(=O)O)N1Cc2c(cc(O)c3c2OC2(C3)C(C)CCC3C(C)(C)C(O)CCC32C)C1=O` (stereo not drawn) [Compound of the formula (III)] showed an IC50 of 66 µM. `CC(C)CC(C(=O)O)N1Cc2c(cc(O)c3c2OC2(C3)C(C)CCC3C(C)(C)C(O)CCC32C)C1=O` (stereo not drawn) [Compound of the formula (IV)] was tested, and the IC50 was 35 µM.
